In patent publication US12653827B2, “Methods of treating indolent systemic mastocytosis” (Telios Pharma Inc., priority 2024, dated 2026):

What was measured:
[1] = tested on: basophils; assay: Comparison of BTK inhibitors by BAT (CD63 and CD203c); assay type: cell-based, human; settings: concentration of 1 μM; 2 hours; blood from a healthy donor
Method: The BAT assay using the Flow Cast Basophil Activation Kit (Buhlmann Diagnostics; Catalog #B-CCR-STCON) was then conducted following manufacturer instructions by (1) stimulating the blood with anti-FcεR stimulation control in stimulation buffer with IL-3 and staining cells for CCR3 and CD63 for 15 minutes at 37° C., (2) lysing red blood cells and fixing cells with Lysing Reagent at room temperature for 10 minutes, (3) washing cells with Wash Buffer, and (4) acquiring data on a flow cytometer. Activated basophils were defined as CCR3+, low side scatter and CD63+. Percent of activated basophils was calculated as number of activated basophils over the total number of basophils. A four-parameter logistic regression was applied to determine the EC50 and EC90.
Blood samples were gently rocked at room temperature for 2 hours. […] Activated basophils were also defined as CCR3+, low side scatter and CD203c+.

[2] = biological target: BTK (Homo sapiens, UniProt Q06187); assay: pBTK test in ISM-like (+SCF) human mast cells; assay type: cell-based; parameters: endogenous in cells; host or cells: Primary human mast cells differentiated from bone marrow CD34+ cells of healthy donors, cultured with SCF; settings: six healthy donors, treated two hours
Method: Human mast cells were derived from bone marrow CD34+ cells from six healthy donors for up to eight weeks by culturing CD34+ cells in StemSpan SFEM II (Stem Cell Technologies) supplemented with stem cell factor (SCF; 100 ng/mL; R&D System), IL-6 (R&D Systems), IL-3 (R&D Systems) and 1% penicillin/streptomycin (P/S; Gibco) for the first 10 days and in StemSpan SFEM II supplemented with SCF and IL-6 and 1% P/S for the remaining time in culture. […] Supernatant was collected and histamine levels were measured using a Histamine ELISA kit (Eagle Biosciences). […] Percent of activated mast cells was calculated as number of activated mast cells over the total number of mast cells.
Human mast cells were differentiated from bone marrow CD34+ cells from six healthy donors, cultured and sensitized as set forth in Example 4. […] The median fluorescence intensity of phosphorylated BTK was measured. CD63 and histamine levels in these cells were measured and percent activated mast cells were calculated as set forth in Example 4. The percent of stimulated control for pBTK, activated mast cells (CD63+) and histamine levels was calculated. […]

BTK, sequence (Q06187 whole entry): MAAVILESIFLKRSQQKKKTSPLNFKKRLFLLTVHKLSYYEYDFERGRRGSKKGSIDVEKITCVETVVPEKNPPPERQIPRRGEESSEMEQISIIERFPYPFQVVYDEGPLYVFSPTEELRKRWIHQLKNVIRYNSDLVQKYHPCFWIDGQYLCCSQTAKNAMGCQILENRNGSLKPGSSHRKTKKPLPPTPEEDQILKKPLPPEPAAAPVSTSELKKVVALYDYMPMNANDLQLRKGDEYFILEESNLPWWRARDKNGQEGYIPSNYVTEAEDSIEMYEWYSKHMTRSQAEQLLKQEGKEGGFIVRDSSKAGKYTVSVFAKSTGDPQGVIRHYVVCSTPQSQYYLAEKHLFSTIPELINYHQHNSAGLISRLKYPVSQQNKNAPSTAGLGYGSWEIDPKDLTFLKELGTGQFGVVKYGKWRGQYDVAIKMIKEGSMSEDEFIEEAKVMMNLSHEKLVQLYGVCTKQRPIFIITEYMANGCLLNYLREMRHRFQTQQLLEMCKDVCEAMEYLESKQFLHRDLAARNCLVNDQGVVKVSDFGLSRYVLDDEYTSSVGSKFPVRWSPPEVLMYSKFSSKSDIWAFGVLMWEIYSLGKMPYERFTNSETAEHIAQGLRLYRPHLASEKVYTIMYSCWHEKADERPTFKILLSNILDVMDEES

inhibition of IgE-mediated BTK phosphorylation [2]: potently inhibits
Structure (SMILES): C=CC(=O)N1CCC(F)(CNc2ncnc(N)c2-c2ccc(Oc3ccccc3)cc2)CC1 [Compound 128, 1-(4-(((6-amino-5-(4-phenoxyphenyl)pyrimidin-4-yl)amino)methyl)-4-fluoropiperidin-1-yl)prop-2-en-1-one]
effect on basophil activation (CD63+, CD203c+) [1]: fully inhibits basophil activation
